{
  "source": "the Deep4Chem optical property database",
  "assay": "solvent given as SMILES",
  "data": [
    {"compound": "O=CC12N=N[C@](C=O)(C3C4CCC(C4)C31)C1[C@@H]3CC[C@@H](C3)[C@H]12", "note": "(some centres not stated)", "values": [
      {"measurement": "fluorescence lifetime", "setting": "in CC#N", "result": 111, "unit": "ns"}
    ]},
    {"compound": "c1ccc(-c2nc(-c3ccccc3)nc(-c3ccc(N4c5ccccc5C5(c6ccccc6-c6ccccc65)c5ccccc54)cc3)n2)cc1", "values": [
      {"measurement": "fluorescence lifetime", "setting": "in O=P(c1ccccc1)(c1ccccc1)c1ccccc1Oc1ccccc1P(=O)(c1ccccc1)c1ccccc1", "result": 33, "unit": "ns"}
    ]},
    {"compound": "COc1ccc2cc(/C=C/C3=[O+][B-](F)(F)OC(/C=C/c4ccc5cc(OC)ccc5c4)=C3c3ccccc3)ccc2c1", "values": [
      {"measurement": "fluorescence lifetime", "setting": "in ClCCl", "result": 1.86, "unit": "ns"}
    ]},
    {"compound": "F[B-]1(F)OC(c2ccccc2)=Cc2cc3[n+](c[n+]21)[B-](F)(F)OC(c1ccccc1)=C3", "values": [
      {"measurement": "fluorescence lifetime", "setting": "in ClCCl", "result": 1.4, "unit": "ns"}
    ]},
    {"compound": "CC(C)(C)[Si](C)(C)C#CC1=CC2=c3cc(C#C[Si](C)(C)C(C)(C)C)c4nc(C(F)(F)C(F)(F)C(F)(F)F)nc5c(C#C[Si](C)(C)C(C)(C)C)cc(c3c54)C3=CC(C#C[Si](C)(C)C(C)(C)C)=C4N=C(C(F)(F)C(F)(F)C(F)(F)F)N=C1C4C32", "note": "(configuration not stated)", "values": [
      {"measurement": "fluorescence lifetime", "setting": "in C1CCOC1", "result": 2.1, "unit": "ns"}
    ]},
    {"compound": "CCCCCCCCCCCCN1C(=O)c2c(c3ccc4cc(-c5ccc(C#N)cc5)c(OC)cc4c3c3c2ccc2cc(-c4ccc(C#N)cc4)c(OC)cc23)C1=O", "values": [
      {"measurement": "fluorescence lifetime", "setting": "in ClCCl", "result": 6.3, "unit": "ns"}
    ]},
    {"compound": "c1ccc(N(c2ccccc2)c2ccc3c4cccc5c(N(c6ccccc6)c6ccccc6)ccc(c6cccc2c63)c54)cc1", "values": [
      {"measurement": "fluorescence lifetime", "setting": "in ClCCl", "result": 4.71, "unit": "ns"}
    ]},
    {"compound": "CCN(CC)c1ccc(OC)c(C=O)c1", "values": [
      {"measurement": "fluorescence lifetime", "setting": "in CC#N", "result": 12.5, "unit": "ns"},
      {"measurement": "fluorescence lifetime", "setting": "in CC(C)O", "result": 0.96, "unit": "ns"},
      {"measurement": "fluorescence lifetime", "setting": "in CCCCCC", "result": 7.78, "unit": "ns"},
      {"measurement": "fluorescence lifetime", "setting": "in CCOC(C)=O", "result": 12.5, "unit": "ns"},
      {"measurement": "fluorescence lifetime", "setting": "in CS(C)=O", "result": 20.9, "unit": "ns"},
      {"measurement": "fluorescence lifetime", "setting": "in Cc1ccccc1", "result": 12.5, "unit": "ns"},
      {"measurement": "fluorescence lifetime", "setting": "in ClCCl", "result": 17, "unit": "ns"}
    ]},
    {"compound": "CN(C)c1ccc(-c2ccc(C#N)s2)s1", "values": [
      {"measurement": "fluorescence lifetime", "setting": "in CCO", "result": 2.72, "unit": "ns"}
    ]},
    {"compound": "CC1(C)Nc2cc(Cl)ccc2-c2[nH]c3ccccc3c(=O)c21", "values": [
      {"measurement": "fluorescence lifetime", "setting": "in C1CCOC1", "result": 7.47, "unit": "ns"},
      {"measurement": "fluorescence lifetime", "setting": "in CC#N", "result": 8.72, "unit": "ns"},
      {"measurement": "fluorescence lifetime", "setting": "in CCCCO", "result": 9.26, "unit": "ns"},
      {"measurement": "fluorescence lifetime", "setting": "in CCCO", "result": 9.2, "unit": "ns"},
      {"measurement": "fluorescence lifetime", "setting": "in CCO", "result": 9, "unit": "ns"},
      {"measurement": "fluorescence lifetime", "setting": "in CCOC(C)=O", "result": 7.52, "unit": "ns"},
      {"measurement": "fluorescence lifetime", "setting": "in CN(C)C=O", "result": 9.36, "unit": "ns"},
      {"measurement": "fluorescence lifetime", "setting": "in CO", "result": 8.67, "unit": "ns"},
      {"measurement": "fluorescence lifetime", "setting": "in CS(C)=O", "result": 9.91, "unit": "ns"},
      {"measurement": "fluorescence lifetime", "setting": "in Cc1ccccc1", "result": 6.68, "unit": "ns"},
      {"measurement": "fluorescence lifetime", "setting": "in ClC(Cl)(Cl)Cl", "result": 4.8, "unit": "ns"},
      {"measurement": "fluorescence lifetime", "setting": "in ClCCl", "result": 8.06, "unit": "ns"},
      {"measurement": "fluorescence lifetime", "setting": "in O", "result": 8.68, "unit": "ns"},
      {"measurement": "fluorescence lifetime", "setting": "in c1ccccc1", "result": 6.71, "unit": "ns"}
    ]},
    {"compound": "COc1cc2cc(/C=C/c3ccc(/C=C(\\C#N)C(=O)O)cc3)c(=O)oc2cc1OC", "values": [
      {"measurement": "fluorescence lifetime", "setting": "in CC#N", "result": 2.06, "unit": "ns"}
    ]},
    {"compound": "COc1cc(N2CCOCCOCCN(c3cc(OC)c(NC(=O)c4ccc(-c5c6cc(Cl)c(=O)cc-6oc6cc([O-])c(Cl)cc56)c(C(=O)[O-])c4)cc3OC)CCOCC2)c(OC)cc1NC(=O)c1ccc(-c2c3cc(Cl)c(=O)cc-3oc3cc([O-])c(Cl)cc23)c(C(=O)[O-])c1", "values": [
      {"measurement": "fluorescence lifetime", "setting": "in O", "result": 1.13, "unit": "ns"}
    ]},
    {"compound": "CSc1nc(-c2ccc(-n3c4ccccc4c4ccccc43)cc2)cc(-c2ccc(-n3c4ccccc4c4ccccc43)cc2)n1", "values": [
      {"measurement": "fluorescence lifetime", "setting": "in C1CCOC1", "result": 3.22, "unit": "ns"},
      {"measurement": "fluorescence lifetime", "setting": "in CN(C)C=O", "result": 7.39, "unit": "ns"},
      {"measurement": "fluorescence lifetime", "setting": "in Cc1ccccc1", "result": 1.45, "unit": "ns"},
      {"measurement": "fluorescence lifetime", "setting": "in ClC(Cl)Cl", "result": 3.24, "unit": "ns"}
    ]},
    {"compound": "Cc1cc(C)c(C2=[N+]3C(=Cc4c(C)cc(C)n4[B-]3(F)F)c3ccccc32)[nH]1", "values": [
      {"measurement": "fluorescence lifetime", "setting": "in C1CCOC1", "result": 3.75, "unit": "ns"},
      {"measurement": "fluorescence lifetime", "setting": "in CC#N", "result": 4.34, "unit": "ns"},
      {"measurement": "fluorescence lifetime", "setting": "in CCCCCC", "result": 7.17, "unit": "ns"},
      {"measurement": "fluorescence lifetime", "setting": "in CO", "result": 4.98, "unit": "ns"},
      {"measurement": "fluorescence lifetime", "setting": "in Cc1ccccc1", "result": 6.14, "unit": "ns"},
      {"measurement": "fluorescence lifetime", "setting": "in ClCCl", "result": 6.4, "unit": "ns"}
    ]},
    {"compound": "CCOC(=O)c1ccc2c(c1)sc1c3ccc(C(=O)OCC)cc3sc21", "values": [
      {"measurement": "fluorescence lifetime", "setting": "in CCCO", "result": 0.35, "unit": "ns"}
    ]},
    {"compound": "O=C1C(=c2c(=O)c3c4ccccc4cc4cc5ccccc5c2c43)C(=O)c2ccccc21", "values": [
      {"measurement": "fluorescence lifetime", "setting": "in C1CCOC1", "result": 10.7, "unit": "ns"},
      {"measurement": "fluorescence lifetime", "setting": "in CC#N", "result": 6.9, "unit": "ns"},
      {"measurement": "fluorescence lifetime", "setting": "in CCCCCC", "result": 12.4, "unit": "ns"},
      {"measurement": "fluorescence lifetime", "setting": "in Cc1ccccc1", "result": 11.3, "unit": "ns"},
      {"measurement": "fluorescence lifetime", "setting": "in ClCCl", "result": 8.7, "unit": "ns"}
    ]},
    {"compound": "COc1ccc(N(c2ccc(/C=C(\\C)c3ccccc3)cc2)c2ccc(/C=C(\\C)c3ccccc3)cc2)cc1", "values": [
      {"measurement": "fluorescence lifetime", "setting": "in Cc1ccccc1", "result": 1.5, "unit": "ns"}
    ]},
    {"compound": "COc1cc2[nH]c3c(c2cc1OCC(=O)O)CCCC3=O", "values": [
      {"measurement": "fluorescence lifetime", "setting": "in C1CCOC1", "result": 0.411, "unit": "ns"},
      {"measurement": "fluorescence lifetime", "setting": "in C1COCCO1", "result": 0.189, "unit": "ns"},
      {"measurement": "fluorescence lifetime", "setting": "in CC#N", "result": 0.627, "unit": "ns"},
      {"measurement": "fluorescence lifetime", "setting": "in CCCCCCCCCCCCO", "result": 1.24, "unit": "ns"},
      {"measurement": "fluorescence lifetime", "setting": "in CCCCCCCCCCO", "result": 1.17, "unit": "ns"},
      {"measurement": "fluorescence lifetime", "setting": "in CCCCCCCCO", "result": 1.15, "unit": "ns"},
      {"measurement": "fluorescence lifetime", "setting": "in CCCCCCO", "result": 1.17, "unit": "ns"},
      {"measurement": "fluorescence lifetime", "setting": "in CCCCO", "result": 1.29, "unit": "ns"},
      {"measurement": "fluorescence lifetime", "setting": "in CCO", "result": 1.69, "unit": "ns"},
      {"measurement": "fluorescence lifetime", "setting": "in CCOC(C)=O", "result": 0.279, "unit": "ns"},
      {"measurement": "fluorescence lifetime", "setting": "in CN(C)C=O", "result": 1.92, "unit": "ns"},
      {"measurement": "fluorescence lifetime", "setting": "in CO", "result": 1.87, "unit": "ns"},
      {"measurement": "fluorescence lifetime", "setting": "in CS(C)=O", "result": 2.27, "unit": "ns"},
      {"measurement": "fluorescence lifetime", "setting": "in Cc1ccccc1", "result": 0.189, "unit": "ns"},
      {"measurement": "fluorescence lifetime", "setting": "in O", "result": 2.23, "unit": "ns"},
      {"measurement": "fluorescence lifetime", "setting": "in c1ccccc1", "result": 0.188, "unit": "ns"}
    ]},
    {"compound": "CCCCCCCCCCCCOc1ccc(C#Cc2ccc(C#Cc3ccc(OCCCCCCCCCCCC)c(OCCCCCCCCCCCC)c3)c3nc4c5ccccc5c5ccccc5c4nc23)cc1OCCCCCCCCCCCC", "values": [
      {"measurement": "fluorescence lifetime", "setting": "in C1CCOC1", "result": 8.22, "unit": "ns"},
      {"measurement": "fluorescence lifetime", "setting": "in Cc1ccccc1", "result": 7.13, "unit": "ns"},
      {"measurement": "fluorescence lifetime", "setting": "in ClCCl", "result": 8.62, "unit": "ns"}
    ]}
  ]
}
